US8940936B2, “Aryloxy phenoxy acrylic compound having HIF-1 inhibition activity, method for preparing same, and pharmaceutical composition containing same as an active ingredient” (Korea Research Institute of Bioscience and Biotechnology, priority 2010, dated 2015)

Experiments:
[1] = tested on: EPO (erythropoietin); test: Expression of HIF-1 target gene EPO (RT-PCR, HCT116); assay type: cell-based, human; details: mRNA, HCT116, hypoxic condition, 0, 10, 20 μM; FIG. 5
Protocol: (§1) To investigate HIF-1 inhibition activity of the compound of the present invention, the inhibition of VEGF and EPO, two most representative HIF-1 target genes, by the compound of formula 1 prepared in example 1 was measured. Particularly, the colon cancer cell line HCT116 was used for the measurement as follows.
(§2) The human colon cancer cell line HCT116 was seeded in cell culture vessel at the density of 2×10^5 cell/ml, followed by culture for 24 hours. The cells were pretreated in hypoxic condition (oxygen 1%; nitrogen 94%; carbon dioxide 5%) for 4 hours to induce the accumulation of HIF-1α. The cells were treated with the compound of formula 1 prepared in example 1 at the concentrations of 0, 10, and 20 μM, followed by culture for 12 hours in hypoxic condition. Then, mRNA was extracted by using trizol. To compare the expression with that of HIF-1 target gene treated with the compound prepared in comparative example 1, the control was treated with the compound of comparative example 1 at the concentrations of 0, 10, 15, and 20 μM. From the extracted mRNA, cDNA was synthesized by using RT-PCR kit (Invitrogen). The amounts of mRNAs of the HIF-1α target genes VEGF (vascular endothelial growth factor A) and EPO (erythropoietin) were measured by using RT-PCR and real-time RT-PCR. […]

[2] = tested on: HIF-1α; test: HIF-1α expression in tumor tissue (tumor tissue immune response experiment, Caki-1 model); assay type: in vivo, mouse; details: Caki-1 tumor, optical microscope; FIG. 6
Protocol: In addition, to investigate whether or not the anticancer activity shown in experimental example 5 was attributed to the decrease of HIF-1α expression, tumor tissue immune response experiment was performed.

[3] = tested on: B16F10 melanoma cell line; test: Angiogenesis inhibition activity in B16F10 tumor tissue; assay type: in vivo, mouse; details: FIG. 7, FIG. 8
Protocol: The following experiment was performed to investigate if the compound of formula 1 could inhibit angiogenesis along with the tumor growth.
Particularly, the experimental group composed of 5 female mice (C57BL) at 6 weeks was transplanted with B16F10 melanoma cell line. After the cancer cells were grown, the mice were treated with the compound of formula 1 via intraperitoneal injection at the dose of […] for 5 days. Inhibition of angiogenesis and the tumor growth were observed. In the meantime, the control group was treated with the mixed solution comprising 10% DMAC, 10% cremophor and 80% buffer (pH 10) every day. The comparative group was treated with topotecan at the dose of 2 mg/kg once every other day. Weight changes and the newly generated blood vessels were measured and the results are shown in Table 7, Table 8, FIG. 7, and FIG. 8. The tumor volume shown in Table 8 was calculated by the mathematical formula 1 of experimental example 4 and the inhibition rate was calculated by the mathematical formula 2 of experimental example 4.

[4] = tested on: VEGF (vascular endothelial growth factor A); test: Expression of HIF-1 target gene VEGF (RT-PCR, HCT116); assay type: cell-based, human
Protocol: as §1, §2

[5] = tested on: HCT116 cells; test: Cell migration inhibition activity (wound-healing experiment); assay type: cell-based, human; details: 10 μM, 48 hours, FIG. 9
Protocol: To evaluate cell migration inhibition effect of the compound of example 1, wound-healing experiment was performed. Particularly, an insert (Ibidi) was placed in the center of a 6-well cell culture dish and HCT116 cells (3×10^5 cell/ml) were loaded in each well by 70 μl. Medium was filled in around the insert. 24 hours later, the insert was carefully eliminated by using forceps, and the cells were washed with medium carefully not to be detached from the bottom of the culture dish. The control group was added with the diluted medium supplemented with DMSO. The experimental group was added with the diluted medium supplemented with 10 μM of the compound of example 1. 48 hours later, cell migration in each group was observed.

COC(=O)c1cccc(NC(=O)/C=C/Oc2ccc(C34CC5CC(CC(C5)C3)C4)cc2)c1 [Example 1, (E)-3-[3-(4-Adamantan-1-yl-phenoxy)-acryloylamino]-benzoic acid methyl ester]
expression of EPO [1]: inhibited the expressions of VEGF and EPO, the HIF-1 target genes, dose-dependently
HIF-1α expression in tumor tissue [2]: significantly reduced
reduction of angiogenesis compared with non-treated group [3]: ~40%
expression of GAPDH ([4]; internal control gene, HCT116, hypoxic condition): did not change
expression of VEGF ([4]; mRNA, HCT116, hypoxic condition, 0, 10, 20 μM, FIG. 5): inhibited the expressions of VEGF and EPO, the HIF-1 target genes, dose-dependently
cell migration [5]: significantly reduced cell migration
